Reference: patent US12448389B2, “BRM targeting compounds and associated methods of use” (Prelude Therapeutics Incorporated, priority 2020, dated 2025)

How the values were obtained:
SMARCA2-HiBiT = biological target: T1, SMARCA2-HiBiT (Homo sapiens, UniProt P51531); test: SMARCA2 HiBiT degradation assay in HeLa cells; assay type: cell-based; details: 18 hours incubation; for DC50: read-out: HeLa_HiBit-SM2 DC50; for Dmax: HeLa, read-out: HeLa-HiBit-SM2 Dmax (%)
T1 construct: SMARCA2-HiBiT knock-in Hela monoclonal cell (CS302366); host or cells: HeLa monoclonal knock-in line (CRISPR HiBiT knock-in at the endogenous locus, heterozygous)
How it was run: (§1)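 HeLa monoclonal lines with heterozygous HiBiT knock-in were seeded at 2500 cells/well in EMEM with 10% FBS and treated with compound for 18 h at 37 °C. Remaining tagged protein was measured by Nano-Glo HiBiT lytic luminescence after 30–60 min at RT, and values came from curve fitting.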

SMARCA4-HiBiT = biological target: T2, SMARCA4-HiBiT (Homo sapiens, UniProt P51532); test: SMARCA4 HiBiT degradation assay in HeLa cells; assay type: cell-based; details: 18 hours incubation; for DC50: read-out: HeLa-HiBit-SM4 DC50; for Dmax: HeLa, read-out: HeLa-HiBit-SM4 Dmax (%)
T2 construct: SMARCA4-HiBiT knock-in Hela monoclonal cell (CS3023226); host or cells: HeLa monoclonal knock-in line (CRISPR HiBiT knock-in at the endogenous locus, heterozygous)
How it was run: as §1

T1 sequence (P51531 whole entry): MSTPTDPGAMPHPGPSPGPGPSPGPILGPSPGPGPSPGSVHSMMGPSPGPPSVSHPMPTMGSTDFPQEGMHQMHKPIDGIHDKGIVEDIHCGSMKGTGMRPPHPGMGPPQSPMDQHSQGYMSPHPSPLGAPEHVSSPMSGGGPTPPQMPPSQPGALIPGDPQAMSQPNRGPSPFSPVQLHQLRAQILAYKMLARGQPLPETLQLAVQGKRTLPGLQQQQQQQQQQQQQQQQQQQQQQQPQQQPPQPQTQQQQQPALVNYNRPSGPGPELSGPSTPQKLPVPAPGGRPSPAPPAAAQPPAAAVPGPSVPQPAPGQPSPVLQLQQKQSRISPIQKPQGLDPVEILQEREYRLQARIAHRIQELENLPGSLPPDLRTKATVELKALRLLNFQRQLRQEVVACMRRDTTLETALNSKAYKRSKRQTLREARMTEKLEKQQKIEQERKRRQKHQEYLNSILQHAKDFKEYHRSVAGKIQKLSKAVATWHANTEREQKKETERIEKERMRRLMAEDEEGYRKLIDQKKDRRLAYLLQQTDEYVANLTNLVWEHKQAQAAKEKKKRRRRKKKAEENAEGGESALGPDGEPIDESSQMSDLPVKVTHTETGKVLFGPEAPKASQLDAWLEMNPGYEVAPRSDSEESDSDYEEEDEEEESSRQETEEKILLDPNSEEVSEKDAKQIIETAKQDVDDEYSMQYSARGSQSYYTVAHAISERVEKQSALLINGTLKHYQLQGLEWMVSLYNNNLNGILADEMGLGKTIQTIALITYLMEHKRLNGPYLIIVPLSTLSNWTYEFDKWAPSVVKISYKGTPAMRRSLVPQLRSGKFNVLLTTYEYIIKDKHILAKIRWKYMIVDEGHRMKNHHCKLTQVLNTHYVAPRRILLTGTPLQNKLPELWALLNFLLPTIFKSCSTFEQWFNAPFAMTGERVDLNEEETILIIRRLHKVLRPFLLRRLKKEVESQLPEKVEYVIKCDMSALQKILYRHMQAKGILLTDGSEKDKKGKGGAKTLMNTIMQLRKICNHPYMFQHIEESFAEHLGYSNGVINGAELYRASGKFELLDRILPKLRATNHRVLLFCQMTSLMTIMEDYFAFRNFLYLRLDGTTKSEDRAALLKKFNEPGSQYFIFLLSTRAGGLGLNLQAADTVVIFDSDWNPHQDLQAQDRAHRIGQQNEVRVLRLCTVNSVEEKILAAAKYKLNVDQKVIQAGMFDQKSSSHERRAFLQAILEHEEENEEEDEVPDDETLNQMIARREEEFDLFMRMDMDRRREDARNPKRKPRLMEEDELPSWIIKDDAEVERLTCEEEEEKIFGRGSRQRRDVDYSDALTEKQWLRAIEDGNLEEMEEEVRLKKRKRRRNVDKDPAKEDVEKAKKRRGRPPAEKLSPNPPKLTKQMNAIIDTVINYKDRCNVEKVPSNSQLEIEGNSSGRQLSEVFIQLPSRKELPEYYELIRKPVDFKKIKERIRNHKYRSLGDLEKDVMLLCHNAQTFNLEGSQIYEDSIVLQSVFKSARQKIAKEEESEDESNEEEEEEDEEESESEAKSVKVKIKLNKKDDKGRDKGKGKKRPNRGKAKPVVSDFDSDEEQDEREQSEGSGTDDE
T2 sequence (P51532 whole entry): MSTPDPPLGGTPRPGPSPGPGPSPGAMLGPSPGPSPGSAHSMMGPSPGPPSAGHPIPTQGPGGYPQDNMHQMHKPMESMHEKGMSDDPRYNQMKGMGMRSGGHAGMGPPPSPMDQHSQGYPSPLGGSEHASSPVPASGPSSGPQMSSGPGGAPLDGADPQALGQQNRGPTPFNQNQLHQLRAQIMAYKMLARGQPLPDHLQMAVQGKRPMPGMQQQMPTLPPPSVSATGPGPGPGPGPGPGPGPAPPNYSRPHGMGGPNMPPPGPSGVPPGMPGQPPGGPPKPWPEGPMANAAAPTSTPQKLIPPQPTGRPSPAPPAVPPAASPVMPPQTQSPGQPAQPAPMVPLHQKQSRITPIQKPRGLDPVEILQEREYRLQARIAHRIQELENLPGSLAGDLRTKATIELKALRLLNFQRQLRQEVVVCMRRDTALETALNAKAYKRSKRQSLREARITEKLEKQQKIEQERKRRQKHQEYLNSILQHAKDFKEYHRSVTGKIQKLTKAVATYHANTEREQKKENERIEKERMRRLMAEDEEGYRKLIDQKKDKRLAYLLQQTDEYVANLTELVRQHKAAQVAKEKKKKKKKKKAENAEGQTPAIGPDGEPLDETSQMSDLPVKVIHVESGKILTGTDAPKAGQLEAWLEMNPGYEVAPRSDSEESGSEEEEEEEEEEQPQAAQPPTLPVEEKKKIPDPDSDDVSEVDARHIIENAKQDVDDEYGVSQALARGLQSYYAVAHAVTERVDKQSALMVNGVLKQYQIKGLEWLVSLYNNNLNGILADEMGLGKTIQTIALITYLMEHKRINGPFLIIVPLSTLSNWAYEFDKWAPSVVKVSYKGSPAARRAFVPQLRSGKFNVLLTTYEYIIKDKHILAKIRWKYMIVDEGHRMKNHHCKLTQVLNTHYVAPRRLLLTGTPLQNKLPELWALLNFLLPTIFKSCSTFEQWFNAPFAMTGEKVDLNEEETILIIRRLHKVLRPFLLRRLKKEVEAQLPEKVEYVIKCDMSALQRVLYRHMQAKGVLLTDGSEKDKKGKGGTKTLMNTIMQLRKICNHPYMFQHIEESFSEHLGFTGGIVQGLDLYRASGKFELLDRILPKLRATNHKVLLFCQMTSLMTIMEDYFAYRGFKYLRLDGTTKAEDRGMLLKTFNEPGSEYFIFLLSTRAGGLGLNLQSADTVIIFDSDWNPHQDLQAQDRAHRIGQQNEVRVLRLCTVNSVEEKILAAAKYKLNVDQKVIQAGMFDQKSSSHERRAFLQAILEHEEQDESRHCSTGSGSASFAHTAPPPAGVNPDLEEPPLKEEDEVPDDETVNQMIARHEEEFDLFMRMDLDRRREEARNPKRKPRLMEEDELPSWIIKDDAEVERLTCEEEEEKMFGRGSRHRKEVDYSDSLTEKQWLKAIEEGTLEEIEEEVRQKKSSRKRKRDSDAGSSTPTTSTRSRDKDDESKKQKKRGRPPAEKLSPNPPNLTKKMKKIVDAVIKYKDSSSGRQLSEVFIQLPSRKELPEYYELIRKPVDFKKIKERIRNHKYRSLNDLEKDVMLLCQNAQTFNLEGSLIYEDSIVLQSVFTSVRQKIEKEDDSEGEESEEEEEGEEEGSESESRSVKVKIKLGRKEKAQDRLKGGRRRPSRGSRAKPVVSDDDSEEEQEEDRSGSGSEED

## O=C1CCC(N2C(=O)c3ccc(N4CCOC(CN5CCN(C(=O)N6CCN7c8cc(-c9ccccc9O)nnc8NC[C@H]7C6)CC5)C4)cc3C2=O)C(=O)N1 (stereo partly drawn) [Example 117, 2-(2,6-dioxopiperidin-3-yl)-5-(2-((4-((S)-2-(2-hydroxyphenyl)-6,6a,7,8,9,10-hexahydro-5H-pyrazino[1′,2′:4,5]pyrazino[2,3-c]pyridazine-8-carbonyl)piperazin-1-yl)methyl)morpholino)isoindoline-1,3-dione]
SMARCA2-HiBiT
  DC50: < 10 nM
  Dmax: 75 to 85%
SMARCA4-HiBiT
  DC50: 10 to 100 nM
  Dmax: ≤ 50%

## O=C1CCC(N2C(=O)c3ccc(N4CC[C@H](CN5C[C@@H]6[C@H](C5)[C@H]6CN5CCN6c7cc(-c8ccccc8O)nnc7NC[C@H]6C5)[C@H](F)C4)cc3C2=O)C(=O)N1 (stereo partly drawn) [Example 186, 2-(2,6-dioxopiperidin-3-yl)-5-[(3S,4R)-3-fluoro-4-[[(1S,5R)-6-[[(10S)-4-(2-hydroxyphenyl)-1,5,6,8,12-pentazatricyclo[8.4.0.02,7]tetradeca-2(7),3,5-trien-12-yl]methyl]-3-azabicyclo[3.1.0]hexan-3-yl]methyl]piperidin-1-yl]isoindole-1,3-dione]
SMARCA2-HiBiT
  DC50: < 10 nM
  Dmax: 75 to 85%
SMARCA4-HiBiT
  DC50: < 10 nM
  Dmax: 50 to 75%

## O=C1CCC(N2C(=O)c3cc(F)c(N4CCC(CN5CC6CCC(C5)C6CN5CCN6c7cc(-c8ccccc8O)nnc7NC[C@H]6C5)CC4)cc3C2=O)C(=O)N1 (stereo partly drawn) [Example 169, 2-(2,6-dioxopiperidin-3-yl)-5-fluoro-6-[4-[[8-[[(10S)-4-(2-hydroxyphenyl)-1,5,6,8,12-pentazatricyclo[8.4.0.02,7]tetradeca-2,4,6-trien-12-yl]methyl]-3-azabicyclo[3.2.1]octan-3-yl]methyl]piperidin-1-yl]isoindole-1,3-dione]
SMARCA2-HiBiT
  DC50: < 10 nM
  Dmax: 75 to 85%
SMARCA4-HiBiT
  DC50: 10 to 100 nM
  Dmax: 75 to 85%

## O=C1CCC(N2Cc3ccc(N4CCC(CN5CC6(C5)CN(C(=O)N5CCN7c8cc(-c9ccccc9O)nnc8NC[C@H]7C5)C6)CC4)cc3C2=O)C(=O)N1 (stereo partly drawn) [Example 101, 3-(6-(4-((6-((S)-2-(2-hydroxyphenyl)-6,6a,7,8,9,10-hexahydro-5H-pyrazino[1′,2′:4,5]pyrazino[2,3-c]pyridazine-8-carbonyl)-2,6-diazaspiro[3.3]heptan-2-yl)methyl)piperidin-1-yl)-1-oxoisoindolin-2-yl)piperidine-2,6-dione]
SMARCA2-HiBiT
  DC50: < 10 nM
  Dmax: 75 to 85%
SMARCA4-HiBiT
  DC50: 10 to 100 nM
  Dmax: 75 to 85%

## O=C1CCC(N2Cc3cc(OCCCN4CCC(N5CCN6c7cc(-c8ccccc8O)nnc7NC[C@H]6C5)CC4)ccc3C2=O)C(=O)N1 (stereo partly drawn) [Example 237, 3-(5-(3-(4-((S)-2-(2-hydroxyphenyl)-5,6,6a,7,9,10-hexahydro-8H-pyrazino[1′,2′:4,5]pyrazino[2,3-c]pyridazin-8-yl)piperidin-1-yl)propoxy)-1-oxoisoindolin-2-yl)piperidine-2,6-dione]
SMARCA2-HiBiT
  DC50: < 10 nM
  Dmax: > 85%
SMARCA4-HiBiT
  DC50: < 10 nM
  Dmax: 75 to 85%

## O=C1CCC(N2Cc3ccc(N4CC(CN5C[C@@H]6[C@H](C5)[C@H]6CN5CCN6c7cc(-c8ccccc8O)nnc7NC[C@H]6C5)C4)cc3C2=O)C(=O)N1 (stereo partly drawn) [Example 108, 3-(6-(3-(((1R,5S,6r)-6-(((S)-2-(2-hydroxyphenyl)-5,6,6a,7,9,10-hexahydro-8H-pyrazino[1′,2′:4,5]pyrazino[2,3-c]pyridazin-8-yl)methyl)-3-azabicyclo[3.1,0]hexan-3-yl)methyl)azetidin-1-yl)-1-oxoisoindolin-2-yl)piperidine-2,6-dione]
SMARCA2-HiBiT
  DC50: < 10 nM
  Dmax: > 85%
SMARCA4-HiBiT
  DC50: < 10 nM
  Dmax: > 85%

## CN1CCN(c2ccc3c(c2)C(=O)N(C2CCC(=O)NC2=O)C3=O)CC1CN1C[C@@H]2[C@H](C1)[C@H]2CN1CCN2c3cc(-c4ccccc4O)nnc3NC[C@H]2C1 (stereo partly drawn) [Example 56, 2-(2,6-dioxopiperidin-3-yl)-5-(3-(((1R,5S,6r)-6-(((S)-2-(2-hydroxyphenyl)-5,6,6a,7,9,10-hexahydro-8H-pyrazino[1′,2′:4,5]pyrazino[2,3-c]pyridazin-8-yl)methyl)-3-azabicyclo[3.1.0]hexan-3-yl)methyl)-4-methylpiperazin-1-yl)isoindoline-1,3-dione]
SMARCA2-HiBiT
  DC50: < 10 nM
  Dmax: 50 to 75%
SMARCA4-HiBiT
  DC50: 10 to 100 nM
  Dmax: 75 to 85%

## O=C1CCC(N2C(=O)c3ccc(N4CC(CN5CCC(CN6CCN7c8cc(-c9ccccc9O)nnc8NC[C@H]7C6)CC5)C(F)(F)C4)cc3C2=O)C(=O)N1 (stereo partly drawn) [Example 191, 5-[3,3-difluoro-4-[[4-[[(10S)-4-(2-hydroxyphenyl)-1,5,6,8,12-pentazatricyclo[8.4.0.02,7]tetradeca-2(7),3,5-trien-12-yl]methyl]piperidin-1-yl]methyl]pyrrolidin-1-yl]-2-(2,6-dioxopiperidin-3-yl)isoindole-1,3-dione]
SMARCA2-HiBiT
  DC50: < 10 nM
  Dmax: 50 to 75%
SMARCA4-HiBiT
  DC50: 10 to 100 nM
  Dmax: 75 to 85%

## C[C@H]1CN2c3cc(-c4ccccc4O)nnc3NC[C@H]2CN1CC1CCN(CC2CCN(c3ccc4c(c3)C(=O)N(C3CCC(=O)NC3=O)C4=O)CC2)CC1 (stereo partly drawn) [Example 28, 2-(2,6-dioxopiperidin-3-yl)-5-(4-((4-(((6aS,9S)-2-(2-hydroxyphenyl)-9-methyl-5,6,6a,7,9,10-hexahydro-8H-pyrazino[1′,2′:4,5]pyrazino[2,3-c]pyridazin-8-yl)methyl)piperidin-1-yl)methyl)piperidin-1-yl) isoindoline-1,3-dione]
SMARCA2-HiBiT
  DC50: < 10 nM
  Dmax: > 85%
SMARCA4-HiBiT
  DC50: < 10 nM
  Dmax: 75 to 85%

## CN(C(=O)N1CCN2c3cc(-c4ccccc4O)nnc3NC[C@H]2C1)C1CCN(CC2CCN(c3ccc4c(c3)CN(C3CCC(=O)NC3=O)C4=O)CC2)CC1 (stereo partly drawn) [Example 139, (6aS)-N-(1-((1-(2-(2,6-dioxopiperidin-3-yl)-1-oxoisoindolin-5-yl)piperidin-4-yl)methyl)piperidin-4-yl)-2-(2-hydroxyphenyl)-N-methyl-5,6,6a,7,9,10-hexahydro-8H-pyrazino[1′,2′:4,5]pyrazino[2,3-c]pyridazine-8-carboxamide]
SMARCA2-HiBiT
  DC50: < 10 nM
  Dmax: > 85%
SMARCA4-HiBiT
  DC50: < 10 nM
  Dmax: > 85%

## O=C1CCC(N2C(=O)c3ccc(N4CCC(F)(CN5CCC(CN6CCN7c8cc(-c9ccccc9O)nnc8NC[C@H]7C6)CC5)CC4)cc3C2=O)C(=O)N1 (stereo partly drawn) [Example 48, 2-(2,6-dioxopiperidin-3-yl)-5-(4-fluoro-4-((4-(((S)-2-(2-hydroxyphenyl)-5,6,6a,7,9,10-hexahydro-8H-pyrazino[1′,2′:4,5]pyrazino[2,3-c]pyridazin-8-yl)methyl)piperidin-1-yl)methyl)piperidin-1-yl)isoindoline-1,3-dione]
SMARCA2-HiBiT
  DC50: < 10 nM
  Dmax: > 85%
SMARCA4-HiBiT
  DC50: < 10 nM
  Dmax: 75 to 85%

## CC(C1CCN(c2ccc3c(c2)C(=O)N(C2CCC(=O)NC2=O)C3=O)CC1)N1CCC(CCCN2CCN3c4cc(-c5ccccc5O)nnc4NC[C@H]3C2)CC1 (stereo partly drawn) [Example 248, 2-(2,6-dioxopiperidin-3-yl)-5-(4-(1-(4-(3-((S)-2-(2-hydroxyphenyl)-5,6,6a,7,9,10-hexahydro-8H-pyrazino[1′,2′:4,5]pyrazino[2,3-c]pyridazin-8-yl)propyl)piperidin-1-yl)ethyl)piperidin-1-yl)isoindoline-1,3-dione]
SMARCA2-HiBiT
  DC50: < 10 nM
  Dmax: > 85%
SMARCA4-HiBiT
  DC50: < 10 nM
  Dmax: > 85%

## O=C1CCC(N2C(=O)c3ccc(N4CC(CN5CCN(C(=O)N6CCN7c8cc(-c9ccccc9O)nnc8NC[C@H]7C6)CC5)C4)cc3C2=O)C(=O)N1 (stereo partly drawn) [Example 82, 2-(2,6-dioxopiperidin-3-yl)-5-(3-((4-((S)-2-(2-hydroxyphenyl)-6,6a,7,8,9,10-hexahydro-511-pyrazino[1′,2′:4,5]pyrazino[2,3-c]pyridazine-8-carbonyl)piperazin-1-yl)methyl)azetidin-1-yl) isoindoline-1,3-dione]
SMARCA2-HiBiT
  DC50: < 10 nM
  Dmax: 75 to 85%
SMARCA4-HiBiT
  DC50: < 10 nM
  Dmax: 50 to 75%

## O=C1CCC(N2C(=O)c3ccc(N4CCC(CN5CCC(CN6CCN7c8cc(-c9ccccc9O)nnc8NC[C@H]7C6)CC5CO)CC4)cc3C2=O)C(=O)N1 (stereo partly drawn) [Example 236, 2-(2,6-dioxopiperidin-3-yl)-5-(4-((2-(hydroxymethyl)-4-(((S)-2-(2-hydroxyphenyl)-5,6,6a,7,9,10-hexahydro-8H-pyrazino[1′,2′:4,5]pyrazino[2,3-c]pyridazin-8-yl)methyl)piperidin-1-yl)methyl)piperidin-1-yl) isoindoline-1,3-dione]
SMARCA2-HiBiT
  DC50: < 10 nM
  Dmax: > 85%
SMARCA4-HiBiT
  DC50: < 10 nM
  Dmax: 75 to 85%

## N#CC1(CN2CCN3c4cc(-c5ccccc5O)nnc4NC[C@H]3C2)CCN(CC2CCN(c3ccc4c(c3)C(=O)N(C3CCC(=O)NC3=O)C4=O)CC2)CC1 (stereo partly drawn) [Example 178, 1-[[1-[2-(2,6-dioxopiperidin-3-yl)-1,3-dioxoisoindol-5-yl]piperidin-4-yl]methyl]-4-[[(10S)-4-(2-hydroxyphenyl)-1,5,6,8,12-pentazatricyclo[8.4.0.02,7]tetradeca-2,4,6-trien-12-yl]methyl]piperidine-4-carbonitrile]
SMARCA2-HiBiT
  DC50: < 10 nM
  Dmax: > 85%
SMARCA4-HiBiT
  DC50: < 10 nM
  Dmax: 75 to 85%

## O=C1CCC(N2C(=O)c3ccc(NCCN4CCC(N5CCN6c7cc(-c8cc(F)ccc8O)nnc7NC[C@H]6C5)CC4)cc3C2=O)C(=O)N1 (stereo partly drawn) [Example 242, 2-(2,6-dioxopiperidin-3-yl)-5-((2-(4-((S)-2-(5-fluoro-2-hydroxyphenyl)-5,6,6a,7,9,10-hexahydro-8H-pyrazino[1′,2′:4,5]pyrazino[2,3-c]pyridazin-8-yl)piperidin-1-yl)ethyl)amino)isoindoline-1,3-dione]
SMARCA2-HiBiT
  DC50: < 10 nM
  Dmax: > 85%
SMARCA4-HiBiT
  DC50: < 10 nM
  Dmax: > 85%
